Test systems include UACC-62; MCF7; EKVX; 786-0; DU-145; MDA-MB-435; MDA-MB-231; ACHN; PC-3; NCI-H522; SR; MOLT-4; Hs-578T; T47D; U-251; MDA-N; HL-60.
Experiment in all cases: NCI anticancer screen, dose series, 48 h

The values below come from ChEMBL document CHEMBL1201862, “PubChem BioAssay data set” (2004).

Each structure is given as a SMILES string.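 96-well plates; 48 h exposure; 5 concentrations. Endpoints by linear interpolation between flanking doses. Not reached: highest tested concentration assigned. Here, GI50 denotes the concentration required for 50% inhibition of growth.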 Calls of active or inactive are those of the source. Rule as the data show it: active = GI50 up to about 1.1 µM and inactive = higher.

For the compound `COC(=O)c1c2n(c3ccccc13)C[C@H]1OC(C)(C)O[C@@H]21`, the GI50 in the assay with UACC-62, with MCF7, in the assay on EKVX, in the assay with 786-0, in the assay on DU-145 and with MDA-MB-435 was > 100 µM (inactive) each time. In addition, the GI50 in the assay on MDA-MB-231, in the assay with ACHN, in the assay with PC-3, with NCI-H522, with SR and in the assay with MOLT-4 was > 100 µM (inactive) each time. In addition, the GI50 in the assay with Hs-578T, with T47D and with U-251 was > 100 µM (inactive) each time.
Turning to `CC(=O)OCCCCn1cnc2nc(Nc3ccccc3)nc(Cl)c21`, the GI50 in the assay on UACC-62 was 33.7 µM (inactive); in the assay on MCF7, > 100 µM (inactive); in the assay on EKVX it was > 100 µM (inactive); with 786-0, > 100 µM (inactive); in the assay with MDA-MB-435, 34.4 µM (inactive); in the assay on MDA-MB-231, 35.2 µM (inactive). Besides, the GI50 in the assay on ACHN is 60.7 µM (inactive); in the assay with MDA-N, 31.2 µM (inactive); in the assay with PC-3, 42.5 µM (inactive); with SR it was > 100 µM (inactive); in the assay on MOLT-4, 66.5 µM (inactive); with Hs-578T, 36.2 µM (inactive). Further, the GI50 with T47D is 56.9 µM (inactive); in the assay with U-251 it was > 100 µM (inactive); with HL-60, > 100 µM (inactive).
As to `OCCOCn1nc(-c2ccccc2)nc1-c1cnccn1`, the GI50 in the assay on UACC-62, in the assay on MCF7, in the assay on EKVX, with 786-0, in the assay with DU-145 and in the assay with MDA-MB-231 was > 100 µM (inactive) each time. For the same compound, the GI50 in the assay on MDA-N, in the assay on PC-3, in the assay with NCI-H522, with SR, with MOLT-4 and in the assay on T47D was > 100 µM (inactive) in each case. The GI50 in the assay with U-251 and in the assay on HL-60 was > 100 µM (inactive) throughout.
On to `CCN(CC)Cc1ccc2cccnc2c1O`, for which the GI50 was 5.92 µM (inactive) in the assay with UACC-62; 3.27 µM (inactive) with MCF7; 2.24 µM (inactive) in the assay with EKVX; 10.8 µM (inactive) in the assay with DU-145; 9.42 µM (inactive) with MDA-MB-435; 5.53 µM (inactive) in the assay on MDA-MB-231. The GI50 is 2.33 µM (inactive) in the assay on ACHN; 10.6 µM (inactive) in the assay with MDA-N; 6.05 µM (inactive) in the assay with PC-3; 0.37 µM (active) in the assay with NCI-H522; 0.995 µM (active) with SR; 1.93 µM (inactive) in the assay on MOLT-4. Further, the GI50 in the assay on Hs-578T was 25.4 µM (inactive); in the assay on U-251, 4.47 µM (inactive); in the assay with HL-60, 0.43 µM (active).
On to `CCN1CCC(O)(/C=C/c2ccccc2C)C(C(=O)/C=C/c2ccccc2C)C1` (stereo unspecified), for which the GI50 is 2.97 µM (inactive) in the assay with UACC-62; 3.15 µM (inactive) in the assay on MCF7; 4.06 µM (inactive) in the assay on EKVX; 1.79 µM (inactive) in the assay on DU-145; 2.38 µM (inactive) with MDA-MB-435; 2.55 µM (inactive) in the assay with MDA-MB-231. In addition, the GI50 in the assay with MDA-N was 2.67 µM (inactive); in the assay with PC-3, 1.93 µM (inactive); in the assay with SR it was 2.72 µM (inactive); in the assay with MOLT-4 it was 2.38 µM (inactive); with Hs-578T, 3.76 µM (inactive); in the assay on T47D, 1.85 µM (inactive). For the same compound, the GI50 with U-251 was 2.34 µM (inactive); with HL-60, 2.01 µM (inactive).
In the case of `COc1ccc(/C=C/c2cnccn2)cc1OC`, the GI50 in the assay on UACC-62, with MCF7, with EKVX, in the assay on 786-0, in the assay with DU-145 and in the assay on MDA-MB-435 was > 10 µM (inactive) throughout. Also, the GI50 with MDA-MB-231, in the assay on ACHN, in the assay with MDA-N, in the assay with PC-3, in the assay with NCI-H522 and in the assay with Hs-578T was > 10 µM (inactive) each time. Further, the GI50 in the assay on T47D and in the assay on U-251 was > 10 µM (inactive) throughout.
As to `CCN(CC)CCN(C(=O)c1ccc(F)cc1)c1ccccc1N`, the GI50 in the assay on UACC-62, in the assay on MCF7, in the assay with EKVX, in the assay on DU-145, in the assay on MDA-MB-435 and in the assay with MDA-MB-231 was > 10 µM (inactive) in each case. Besides, the GI50 with ACHN, in the assay on MDA-N, in the assay on PC-3, in the assay on NCI-H522, with SR and in the assay with MOLT-4 was > 10 µM (inactive) throughout. The GI50 with Hs-578T, with T47D, in the assay on U-251 and with HL-60 was > 10 µM (inactive) in each case.
Take `c1ccc2c(c1)SC1Sc3ccccc3[S+]21` (stereo unspecified): the GI50 with UACC-62 was 17.2 µM (inactive); with MCF7, 25.1 µM (inactive); in the assay on EKVX, 22 µM (inactive); in the assay on 786-0, 25.9 µM (inactive); in the assay on DU-145, 21.6 µM (inactive); in the assay on MDA-MB-435 it was 18.8 µM (inactive). The GI50 is 23.7 µM (inactive) in the assay on MDA-MB-231; 14.1 µM (inactive) with ACHN; 22.4 µM (inactive) with MDA-N; 28.3 µM (inactive) in the assay with PC-3; 6.53 µM (inactive) in the assay on NCI-H522; 13.4 µM (inactive) with MOLT-4. Also, the GI50 in the assay with Hs-578T was 64.9 µM (inactive); in the assay on T47D, 12.5 µM (inactive); in the assay on U-251, 20.6 µM (inactive); in the assay with HL-60, 19.8 µM (inactive).
As to `CCC1C(c2ccccc2O)c2cc3c(cc2OC1N1CCOCC1)OCO3` (stereo unspecified), the GI50 was 13.1 µM (inactive) in the assay with UACC-62; 14.4 µM (inactive) in the assay on MCF7; 12.8 µM (inactive) in the assay on EKVX; 21.1 µM (inactive) with 786-0; 14.8 µM (inactive) in the assay with DU-145; 15.6 µM (inactive) with MDA-MB-435. In addition, the GI50 was 16.8 µM (inactive) in the assay with MDA-MB-231; 13.3 µM (inactive) in the assay on ACHN; 12.8 µM (inactive) with MDA-N; 12.5 µM (inactive) with PC-3; 12.9 µM (inactive) with NCI-H522; 14.5 µM (inactive) in the assay on SR. Further, the GI50 with MOLT-4 was 6.44 µM (inactive); in the assay with Hs-578T, 15.9 µM (inactive); in the assay with T47D, 13.2 µM (inactive); in the assay on U-251, 13.6 µM (inactive); in the assay with HL-60, 18.2 µM (inactive).
In the case of `CCOC(=O)c1c2ccccc2n2c(=O)n(-c3ccccc3)nnc12`, the GI50 is 10.4 µM (inactive) in the assay with UACC-62; 0.923 µM (active) with MCF7; > 100 µM (inactive) in the assay with EKVX; 62.4 µM (inactive) in the assay with 786-0; > 100 µM (inactive) in the assay with DU-145; 18.7 µM (inactive) in the assay on MDA-MB-435. Further, the GI50 in the assay with MDA-MB-231 was > 100 µM (inactive); in the assay on ACHN, > 27 µM (inactive); in the assay with MDA-N, > 42.4 µM (inactive); with PC-3 it was > 90.6 µM (inactive); in the assay on Hs-578T, > 100 µM (inactive); in the assay with T47D, 9.08 µM (inactive). Also, the values for the GI50 with U-251 and in the assay on HL-60 were 98.4 µM (inactive) and 23.8 µM (inactive), respectively.
Regarding `Nc1ncnc2c1ncn2C=C=CCO`, the GI50 in the assay on MCF7, with DU-145, in the assay on MDA-MB-435, with MDA-MB-231, in the assay on MDA-N and in the assay on PC-3 was > 100 µM (inactive) each time. For the same compound, the GI50 in the assay on SR, in the assay on MOLT-4, in the assay on Hs-578T, in the assay on T47D and with U-251 was > 100 µM (inactive) each time.
For `Oc1cc(-c2ccccc2)nc2c(S)cccc12`, the GI50 in the assay on UACC-62 is > 100 µM (inactive); with MCF7 it was > 100 µM (inactive); in the assay with 786-0 it was > 100 µM (inactive); in the assay on DU-145 it was > 100 µM (inactive); in the assay with MDA-MB-435, > 100 µM (inactive); in the assay with MDA-MB-231 it was 62.5 µM (inactive). Moreover, the GI50 was 95.3 µM (inactive) in the assay with ACHN; > 100 µM (inactive) in the assay on MDA-N; 47.3 µM (inactive) in the assay with PC-3; > 100 µM (inactive) with NCI-H522; > 100 µM (inactive) with SR; 47.3 µM (inactive) in the assay on MOLT-4. Besides, the GI50 is > 100 µM (inactive) with Hs-578T, 29 µM (inactive) in the assay on T47D, > 100 µM (inactive) in the assay with U-251 and 97.9 µM (inactive) with HL-60.
Consider `Cn1ccc(C(=O)NCCN(CCNC(=O)c2ccn(C)c(=O)c2O)CCNC(=O)c2ccn(C)c(=O)c2O)c(O)c1=O`, for which the GI50 in the assay with UACC-62 is > 100 µM (inactive); in the assay on MCF7, > 100 µM (inactive); with DU-145, > 100 µM (inactive); with MDA-MB-435 it was > 100 µM (inactive); in the assay with MDA-MB-231, > 100 µM (inactive); in the assay with ACHN, 74.6 µM (inactive). For the same compound, the GI50 with MDA-N, with PC-3, in the assay with NCI-H522, in the assay on SR, in the assay on Hs-578T and in the assay with T47D was > 100 µM (inactive) throughout. Moreover, the GI50 in the assay on U-251 and in the assay on HL-60 was > 100 µM (inactive) in each case.
